Experimental data published in US6444643B1, “Methods of using inhibitors of cyclophilin rotamase activity to affect neurological activity” (priority 1995, dated 2002).
Where two headings read alike, the source gives them in different places. Numbered stars: 1 amine (or outer) side, 2 acyl side, 3 side chain; on linkers, the order of the positions; unused ones are H or OH. Square brackets hold non-standard residues; d marks the D form. Peptide text beside a SMILES is read from it. MeBmt = C/C=C/C[C@@H](C)[C@@H](O)[C@H](NC)C(=O)O; X1 = C[C@@H](O)[C@@](C)(C(=O)[*:2])N(C)[*:1]; NMeL = CN[C@@H](CC(C)C)C(=O)O; NMeV = CN[C@H](C(=O)O)C(C)C; NMeAbu = CC[C@H](NC)C(=O)O; Abu = CC[C@H](N)C(=O)O; Dha = C=C(N)C(=O)O; Sar = CNCC(=O)O

Legend:
[1] = test system: chick dorsal root ganglia explants; test: Chick dorsal root ganglion cultures and neurite outgrowth; format: cell-based; settings: for Neurotrophic Potency, Neurite Outgrowth in Chick DRG: relative to cyclosporin A, 48 hours after drug treatment
[2] = target: cyclophilin A (Homo sapiens, UniProt P62937); test: Inhibition of peptidyl-prolyl isomerase (rotamase) activity of cyclophilin, chymotrypsin-coupled assay; format: biochemical
cyclophilin A, sequence (P62937 whole entry, species assumed): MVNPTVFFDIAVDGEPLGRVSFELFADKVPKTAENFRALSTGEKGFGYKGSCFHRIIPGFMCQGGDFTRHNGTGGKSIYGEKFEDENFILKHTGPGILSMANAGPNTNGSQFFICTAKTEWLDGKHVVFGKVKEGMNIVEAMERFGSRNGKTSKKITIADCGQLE
Experimental: We evaluated the potencies of drugs in binding to cyclophilin A by examining inhibition of peptidyl prolyl-isomerase activity (Table 1).
The inhibition of this reaction caused by the addition of different concentrations of inhibitor is determined, and the data is analyzed as a change in first-order rate constant as a function of inhibitor concentration to yield the apparent Ki values. The absorbance at 390 nm versus time is monitored for 90 sec using a spectrophotometer and the rate constants are determined from the absorbance versus. time data files.

[3] = test system: PC12 cells and sensory neurons, namely dorsal root ganglion cells (DRGS); settings: picomolar concentrations; cited from earlier work
[4] = apparent Ki, substrate N-succinyl-Ala-Ala-Pro-Phe-p-nitroanilide, read-out: Ki, cyclophilin inhibition

Row | Molecule | Neurotrophic Potency, Neurite Outgrowth in Chick DRG [1] | Ki [2, 4] [nM] | Ki [2] [nM] | EC50 ([1]; chick DRG explants, from dose-response curves (FIG. 1), read-out: ED50, the dose at which 50% of the maximal response was elicited (neurite outgrowth)) [nM] | neurite outgrowth [3]
1 | CCCC[C@@H](C)[C@@H](O)[C@H]1C(=O)N[C@@H](CC)C(=O)N(C)CC(=O)N(C)[C@@H](CC(C)C)C(=O)N[C@@H](C(C)C)C(=O)N(C)[C@@H](CC(C)C)C(=O)N[C@@H](C)C(=O)N[C@H](C)C(=O)N(C)[C@@H](CC(C)C)C(=O)N(C)[C@@H](CC(C)C)C(=O)N(C)[C@@H](C(C)C)C(=O)N1C [Example 2, dihydro-CsA] | + | 100 |  |  | 
2 | C=C1NC(=O)[C@H](C)NC(=O)[C@H](CC(C)C)N(C)C(=O)[C@H](C(C)C)NC(=O)[C@H](CC(C)C)N(C)C(=O)CN(C)C(=O)[C@H](CC)NC(=O)[C@H]([C@H](O)[C@H](C)C/C=C/C)N(C)C(=O)[C@H](C(C)C)N(C)C(=O)[C@H](CC(C)C)N(C)C(=O)[C@H](CC(C)C)N(C)C1=O [Example 3, [dehydro-Ala]^8-CsA] (cyclo(A[Dha][NMeL][NMeL][NMeV][MeBmt][Abu][Sar][NMeL]V[NMeL])) | + | 75 |  |  | 
3 | C/C=C/C[C@@H](C)[C@@H](O)[C@H]1C(=O)N[C@@H](CC)C(=O)N(C)CC(=O)N(C)[C@@H](C(C)C)C(=O)N[C@@H](C(C)C)C(=O)N(C)[C@@H](CC(C)C)C(=O)N[C@@H](C)C(=O)N[C@H](C)C(=O)N(C)[C@@H](CC(C)C)C(=O)N(C)[C@@H](CC(C)C)C(=O)N(C)[C@@H](C(C)C)C(=O)N1C [Example 4, [MeVal]^4-CsA] (cyclo([MeBmt][Abu][Sar][NMeV]V[NMeL]A[dA][NMeL][NMeL][NMeV])) | +++ |  | 10 |  | 
4 | C/C=C/C[C@@H](C)[C@@H](O)[C@H]1C(=O)N[C@@H](CC)C(=O)N(C)CC(=O)N(C)[C@@H](CC)C(=O)N[C@@H](C(C)C)C(=O)N(C)[C@@H](CC(C)C)C(=O)N[C@@H](C)C(=O)N[C@H](C)C(=O)N(C)[C@@H](CC(C)C)C(=O)N(C)[C@@H](CC(C)C)C(=O)N(C)[C@@H](C(C)C)C(=O)N1C [Example 5, [Me-homoAla]^4-CsA] (cyclo([MeBmt][Abu][Sar][NMeAbu]V[NMeL]A[dA][NMeL][NMeL][NMeV])) | +++ |  |  |  | 
5 | C/C=C/C[C@@H](C)[C@@H](O)[C@H]1C(=O)N[C@@H](CC)C(=O)N(C)CC(=O)N(C)[C@@](C)([C@@H](C)O)C(=O)N[C@@H](C(C)C)C(=O)N(C)[C@@H](CC(C)C)C(=O)N[C@@H](C)C(=O)N[C@H](C)C(=O)N(C)[C@@H](CC(C)C)C(=O)N(C)[C@@H](CC(C)C)C(=O)N(C)[C@@H](C(C)C)C(=O)N1C [Example 6, [Me-(a-methyl)Thr]^4-CsA] (cyclo([MeBmt][Abu][Sar][X1]V[NMeL]A[dA][NMeL][NMeL][NMeV])) | +++ |  |  |  | 
6 | cyclosporin A [Example 1, reference compound] | +++ |  |  | 50 | stimulates neurite out growth
